Blank lines part the entries; values can stand above or below the compound they belong to.
Columns and labels:
[1] = target: Cyclin-dependent kinase 2 (Homo sapiens, UniProt P24941); assay: Inhibition of cyclin A activated Cyclin-dependent kinase 2 (CDK2)
[2] = target: Cyclin-dependent kinase 1 (Homo sapiens, UniProt P06493); assay: Inhibition of cyclin B activated Cyclin-dependent kinase 1 (CDK1)
[3] = target: Cyclin-dependent kinase 4 (Homo sapiens, UniProt P11802); assay: Inhibition of cyclin D1 activated Cyclin-dependent kinase 4 (CDK4)
[4] = target: Epidermal growth factor receptor (Homo sapiens) (UniProt P00533); assay: Inhibition of Epidermal growth factor receptor at 10 uM
[5] = target: Glycogen synthase kinase-3 (Homo sapiens, UniProt P49840+P49841); assay: inhibition of Glycogen synthase kinase-3; assay type: protein assay
HCT-116 = assay: Inhibition of HCT116 (transformed colon) cell proliferation; assay type: functional, cell-based; details: Homo sapiens
[6] = target: T1, Protein kinase C alpha type (Homo sapiens, UniProt P17252); assay: Inhibition of Protein kinase C alpha at 10 uM
[7] = target: Vascular endothelial growth factor receptor 2 (Homo sapiens) (UniProt P35968); assay: Inhibition of Vascular endothelial growth factor receptor 2 (VEGF-KDR) at 10 uM
[8] = target: T1, Protein kinase C alpha type; assay: Inhibition of Protein kinase C alpha

Cyclin-dependent kinase 4, sequence (P11802 whole entry): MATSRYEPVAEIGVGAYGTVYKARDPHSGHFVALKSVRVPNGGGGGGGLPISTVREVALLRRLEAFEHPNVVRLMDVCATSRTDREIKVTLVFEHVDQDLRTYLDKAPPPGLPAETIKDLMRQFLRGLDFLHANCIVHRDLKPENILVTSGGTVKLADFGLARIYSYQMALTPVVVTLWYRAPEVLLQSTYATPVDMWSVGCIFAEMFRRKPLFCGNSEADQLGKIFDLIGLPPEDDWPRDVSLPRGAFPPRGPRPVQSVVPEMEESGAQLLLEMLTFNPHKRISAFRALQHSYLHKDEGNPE
Epidermal growth factor receptor (Homo sapiens), sequence (P00533 whole entry): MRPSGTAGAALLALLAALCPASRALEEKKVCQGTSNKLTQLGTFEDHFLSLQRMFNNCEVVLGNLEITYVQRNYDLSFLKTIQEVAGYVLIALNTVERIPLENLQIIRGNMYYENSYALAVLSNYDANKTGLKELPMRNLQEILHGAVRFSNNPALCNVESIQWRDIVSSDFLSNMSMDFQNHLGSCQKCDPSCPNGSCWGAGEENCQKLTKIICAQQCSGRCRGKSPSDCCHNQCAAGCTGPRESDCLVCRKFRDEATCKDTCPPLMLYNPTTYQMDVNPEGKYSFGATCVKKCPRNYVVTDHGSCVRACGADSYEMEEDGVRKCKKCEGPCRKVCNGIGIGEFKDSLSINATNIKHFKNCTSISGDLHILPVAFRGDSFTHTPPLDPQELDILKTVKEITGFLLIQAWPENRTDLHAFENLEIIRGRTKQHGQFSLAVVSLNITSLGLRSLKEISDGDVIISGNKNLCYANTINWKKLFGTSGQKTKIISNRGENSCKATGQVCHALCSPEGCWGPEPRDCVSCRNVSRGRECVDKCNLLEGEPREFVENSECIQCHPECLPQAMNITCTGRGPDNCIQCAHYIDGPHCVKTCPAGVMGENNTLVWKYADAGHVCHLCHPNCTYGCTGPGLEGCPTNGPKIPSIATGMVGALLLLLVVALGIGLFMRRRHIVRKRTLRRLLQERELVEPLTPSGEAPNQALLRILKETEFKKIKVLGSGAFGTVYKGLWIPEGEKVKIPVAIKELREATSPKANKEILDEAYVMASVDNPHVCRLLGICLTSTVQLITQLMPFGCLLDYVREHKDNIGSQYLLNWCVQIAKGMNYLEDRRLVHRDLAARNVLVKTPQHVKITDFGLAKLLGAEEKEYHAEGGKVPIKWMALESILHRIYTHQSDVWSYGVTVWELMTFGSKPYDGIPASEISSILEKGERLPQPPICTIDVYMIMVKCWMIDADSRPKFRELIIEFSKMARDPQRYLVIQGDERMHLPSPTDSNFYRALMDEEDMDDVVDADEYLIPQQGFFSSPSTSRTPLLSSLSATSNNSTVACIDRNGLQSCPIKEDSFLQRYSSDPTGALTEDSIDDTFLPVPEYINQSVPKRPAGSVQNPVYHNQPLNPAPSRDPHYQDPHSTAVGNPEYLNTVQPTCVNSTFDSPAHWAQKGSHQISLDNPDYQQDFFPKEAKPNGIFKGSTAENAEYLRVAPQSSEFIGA
Vascular endothelial growth factor receptor 2 (Homo sapiens), sequence (P35968 whole entry): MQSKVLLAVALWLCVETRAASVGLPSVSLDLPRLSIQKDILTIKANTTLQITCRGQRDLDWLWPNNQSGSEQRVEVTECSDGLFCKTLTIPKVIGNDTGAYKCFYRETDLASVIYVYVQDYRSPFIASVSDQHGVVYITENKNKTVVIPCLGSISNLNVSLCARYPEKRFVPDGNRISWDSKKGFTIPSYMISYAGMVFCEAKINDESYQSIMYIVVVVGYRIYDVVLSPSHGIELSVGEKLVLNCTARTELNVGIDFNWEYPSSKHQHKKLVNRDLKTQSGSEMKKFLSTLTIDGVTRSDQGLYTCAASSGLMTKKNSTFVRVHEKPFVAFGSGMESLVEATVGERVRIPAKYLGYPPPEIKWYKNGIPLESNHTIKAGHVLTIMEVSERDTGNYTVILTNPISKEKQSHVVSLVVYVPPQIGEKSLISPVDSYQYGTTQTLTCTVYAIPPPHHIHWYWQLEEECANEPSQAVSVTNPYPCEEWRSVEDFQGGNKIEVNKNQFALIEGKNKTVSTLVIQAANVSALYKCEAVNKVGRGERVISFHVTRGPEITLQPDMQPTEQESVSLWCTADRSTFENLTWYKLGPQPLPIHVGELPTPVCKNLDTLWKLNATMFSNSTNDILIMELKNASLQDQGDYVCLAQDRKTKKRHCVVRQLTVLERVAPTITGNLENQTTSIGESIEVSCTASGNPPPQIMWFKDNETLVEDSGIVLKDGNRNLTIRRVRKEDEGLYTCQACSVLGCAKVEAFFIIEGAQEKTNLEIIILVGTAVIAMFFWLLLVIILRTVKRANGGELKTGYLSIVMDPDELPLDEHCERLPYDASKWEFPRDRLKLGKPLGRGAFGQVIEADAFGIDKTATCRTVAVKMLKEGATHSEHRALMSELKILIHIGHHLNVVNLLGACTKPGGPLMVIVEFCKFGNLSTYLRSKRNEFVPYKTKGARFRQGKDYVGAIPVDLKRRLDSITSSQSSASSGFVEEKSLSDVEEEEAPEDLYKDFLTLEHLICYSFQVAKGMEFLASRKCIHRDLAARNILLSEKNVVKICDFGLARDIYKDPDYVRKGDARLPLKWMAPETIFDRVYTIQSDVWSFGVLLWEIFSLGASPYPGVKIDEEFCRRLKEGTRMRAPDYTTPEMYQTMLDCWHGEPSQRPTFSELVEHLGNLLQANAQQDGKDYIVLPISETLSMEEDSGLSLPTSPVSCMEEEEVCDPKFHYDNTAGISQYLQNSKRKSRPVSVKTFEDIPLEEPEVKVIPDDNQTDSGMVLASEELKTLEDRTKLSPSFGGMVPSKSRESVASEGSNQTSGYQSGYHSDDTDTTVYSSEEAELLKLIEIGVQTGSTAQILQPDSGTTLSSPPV
Cyclin-dependent kinase 1, sequence (P06493 whole entry): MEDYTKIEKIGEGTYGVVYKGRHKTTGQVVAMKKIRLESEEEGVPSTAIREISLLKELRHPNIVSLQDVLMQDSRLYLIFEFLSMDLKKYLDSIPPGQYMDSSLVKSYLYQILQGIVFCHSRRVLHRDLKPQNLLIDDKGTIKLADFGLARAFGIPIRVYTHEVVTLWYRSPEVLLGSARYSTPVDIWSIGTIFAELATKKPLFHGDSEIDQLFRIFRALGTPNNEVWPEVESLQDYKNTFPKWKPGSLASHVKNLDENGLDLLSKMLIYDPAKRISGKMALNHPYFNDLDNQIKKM

SMILES: CN1CCC(c2c(O)cc(O)c3c2O/C(=C\c2ccc(N4CCN(C)CC4)cc2)C3=O)CC1
- IC50 [1]: 2980 nM
- IC50 [2]: 800 nM
- IC50 [3]: 1920 nM
- inhibition [4]: 29%
- IC50 [5]: 1750 nM
- IC50 (HCT-116): 24800 nM
- inhibition [6]: 21%
- inhibition [7]: 25%

- IC50 [1]: 310 nM
- IC50 [3]: 2210 nM
- inhibition [4]: 43%
- IC50 [5]: 4800 nM
- IC50 (HCT-116): 35600 nM
- IC50 [8]: 22000 nM
- inhibition [7]: 37%
SMILES: CN1CCC(c2c(O)cc(O)c3c2O/C(=C\c2ccc([N+](=O)[O-])cc2)C3=O)CC1

SMILES: CN1CCC(c2c(O)cc(O)c3c2O/C(=C\c2ccccc2)C3=O)CC1
- IC50 [1]: 1280 nM
- IC50 [2]: 110 nM
- IC50 [3]: 4410 nM
- inhibition [4]: 38%
- IC50 [5]: 4200 nM
- IC50 (HCT-116): > 50000 nM
- inhibition [6]: 19%
- inhibition [7]: 2%

SMILES: CN1CCC(c2c(O)cc(O)c3c2O/C(=C\c2ccc(S(N)(=O)=O)cc2)C3=O)CC1
- IC50 [1]: 30 nM
- IC50 [2]: 9 nM
- IC50 [3]: 1870 nM
- inhibition [4]: 36%
- IC50 [5]: 3700 nM
- IC50 (HCT-116): > 50000 nM
- inhibition [6]: 42%
- inhibition [7]: 25%

SMILES: CN1CCC(c2c(O)cc(O)c3c2O/C(=C\c2ccccc2Cl)C3=O)CC1
- IC50 [1]: 3970 nM
- IC50 [2]: 600 nM
- IC50 [3]: 25300 nM
- IC50 [5]: 10000 nM
- IC50 (HCT-116): 20100 nM
- inhibition [6]: 22%
- inhibition [7]: 17%
